The record followed here is PMC9570594, “Development of Novel Pyridine-Thiazole Hybrid Molecules as Potential Anticancer Agents” (Molecules, 2022).

Some results are limits rather than exact numbers.

One assay relates to UACC-62 (Melanoma). In words: NCI five-dose SRB assay. The note with it: Homo sapiens, 48 h. It is filed as cell-based.
A further assay relates to SW-629 (Colon Cancer). In words: NCI five-dose SRB assay. It is filed as cell-based. The note with it: Homo sapiens, 48 h.
Another assay has as its system MALME-3M (Melanoma). Nature of the assay: NCI five-dose SRB assay. The assay is classed as cell-based. The note with it: Homo sapiens, 48 h. Background: The SRB assay estimates cell density from bound dye.
For assay [1], the system named is Leukemia cell lines (MG_MID). Nature of the assay: NCI five-dose SRB assay. The assay is classed as cell-based. The note with it: Homo sapiens, 48 h.
In a further assay the test system is SNB-75 (CNS Cancer). In words: NCI five-dose SRB assay. The assay is classed as cell-based. The note with it: Homo sapiens, 48 h.
The next assay has as its system SK Mel-2 (Melanoma). Nature of the assay: NCI one-dose SRB assay. The conditions noted are these: 10 μM, 48 h.
A further assay relates to LOX IMVI (Melanoma). Nature of the assay: NCI five-dose SRB assay. The assay is classed as cell-based. The conditions noted are these: Homo sapiens, 48 h.
The test system of the next assay is MCF-7 cells. In words: Chemical synthetic lethality: MTT after preincubation with BRCA1 inhibitor Bractoppin. It is filed as cell-based. The note with it: Homo sapiens, MCF7; MCF-7, 30 min preincubation with Bractoppin, 72 h MTT; read-out: IC50 in the case of BRCA1 inhibition.
The subject of the next assay is SK-MEL-28 (Melanoma). In words: NCI five-dose SRB assay. The assay is classed as cell-based. The note with it: Homo sapiens, 48 h.
In assay [2] the test system is HCT-116 p53 (−/−) colon cancer cells. Nature of the assay: MTT assay of cell viability. The conditions noted are these: Homo sapiens, HCT-116, 72 h. A general note: Tetrazolium assays rely on reduction of a dye to a coloured formazan, in cell work by metabolically active cells.
From the text: The cell lines used in our work were kindly provided by a Collection at the Institute of Molecular Biology and Genetics, National Academy of Sciences of Ukraine (Kyiv, Ukraine).
In another assay the test system is MCF-7 (Breast Cancer). In words: NCI five-dose SRB assay. The note with it: Homo sapiens, MCF7, 48 h. It is filed as cell-based.
Another assay concerns Colo 205 (Colon Cancer). In words: NCI five-dose SRB assay. It is filed as cell-based. The note with it: Homo sapiens, 48 h.
In the next assay the test system is MDA-MB-435 (Melanoma). In words: NCI five-dose SRB assay. The assay is classed as cell-based. The conditions noted are these: Homo sapiens, 48 h.

Turning to `CCOC(=O)c1ccc(NC(=O)CSC(CC(=O)c2sc(Nc3ccccn3)nc2C)c2ccccc2F)cc1` (stereo not shown) [Compound 4, Ethyl 4-[[2-[1-(2-Fluorophenyl)-3-[4-methyl-2-(2-pyridylamino)thiazol-5-yl]-3-oxopropyl]sulfanylacetyl]amino]benzoate], the GI50 – broadly, the concentration at which growth is held to half of that of the control – was found to be 16.1 µM in the assay on UACC-62 (Melanoma); 75.3 µM with SW-629 (Colon Cancer); 25.4 µM in the assay on MALME-3M (Melanoma); 22.5 µM in assay [1]; 3.58 µM with SNB-75 (CNS Cancer); 0.312 µM in the assay with LOX IMVI (Melanoma). The GI50 in the assay with SK-MEL-28 (Melanoma) is 38.7 µM; with MCF-7 (Breast Cancer) it was 15.4 µM; with Colo 205 (Colon Cancer), more than 100 µM; with MDA-MB-435 (Melanoma), 26.3 µM. The Growth % with SK Mel-2 (Melanoma) is −31.22%. Further, the IC50 (commonly the concentration at which inhibition is half-maximal) with MCF-7 cells is 0.7 µM; in assay [2] it was 3.43 ± 0.9 µM.
